Source: US6133299A, “Methods for treating neurodegenerative diseases and disorders using N-(2,6-disubstituted aromatic)-N'-pyridinyl ureas and other anticonvulsant compounds” (Warner-Lambert Company, priority 1993, dated 2000)

Columns and labels:
[1] = tested on: Neuronal/Glial Cortical Cultures; test: Hypoxia-induced lactate dehydrogenase release (cell injury) in neuronal/glial cortical cultures; type: cell-based, rat (Sprague Dawley); conditions: Rattus norvegicus, read-out: % Inh (percent inhibition of the release of lactate dehydrogenase in comparison to hypoxic control cultures)
Description: An assay was conducted to compare the inhibitory action of various compounds which are the subject of the present invention. The assay measured the oxygen deprivation-induced neuronal cell death from various cortical cultures. Lactate dehydrogenase (LDH) is a cytosolic enzyme that is only present in the extracellular medium if cell membranes rupture, indicating cell death. Therefore, LDH release into the culture medium is a convenient assay of cell death. The results of Table 3 indicate that each of the compounds tested decreased neuronal cell death from hypoxia in vitro.
The uteri of Sprague Dawley rats in their 18th day of fetal gestation were removed under halothane anesthesia and placed in a chilled bath of magnesium and calcium-free Hank's balanced salt solution (HBSS). Cortical brain hemispheres were removed from individual fetuses and digested in 0.1% trypsin in HBSS for 15 minutes at room temperature. Digested tissue was washed three times with HBSS then dissociated into a single cell suspension by trituration with a glass pipette. […] One hundred microliters of this cell suspension was pipetted into individual wells of 96-well tissue culture plates previously coated with poly-L-lysine, then stored in a humidified incubator (37° C., 3% CO2). Glial cell growth was stopped by the addition of 100 μL of 45% DME, 45% HAM F12, and 10% Horse serum (10/0 DME/F12) containing 15 μg/mL of 5-fluoro-2-deoxyuridine and 35 μg/mL of uridine, 3 days after the initial plating. Cultures were fed at 2- or 3-day intervals thereafter by replacing 100 μL of spent medium with an identical volume of fresh 10/0 DME/F12.
Sixteen-day-old cultures were prepared for experiments by removing growth medium from each culture well and rinsing once with 250 μL of Mg^++ -free HBSS containing 1.8 mM Ca^++ and 1 g/L D-glucose (0 Mg-HBSS) Control and test agent solutions, prepared using 0 Mg-HBSS medium, were dispensed in 50 μL aliquots into individual test wells (Total volume/well=50 μL). All liquid medium preparations to this point were equilibrated with […], 5% CO2. Plates were placed into a 37° C., humidified, triple-gas incubator with O2 and CO2 levels maintained at 1% and 10%, respectively. Plates were removed after 7.5 hours of oxygen deprivation and restored to normoxic conditions (20% O2 /10% CO2, 37° C.) following a 50 μL addition to each well of appropriate control or test agent solutions containing 1.8 mM Ca^++, 1.6 mM Mg^++, and 7.0 g/L D-glucose. Final medium concentrations of 1.8 mM Ca^++, 0.8 mM Mg^++, and 4 g/L D-glucose were present during the reoxygenation period.
Medium concentrations of lactate dehydrogenase (LDH), a cytosolic enzyme normally retained by cells but released upon cell death, were determined for each well following an additional 16.5-hour normoxic exposure period. Individual 25 μL medium specimens were collected from each well and placed into wells of a clean 96-well microtiter plate containing 225 μL of 0.1 M KPO4 buffer (pH=7.5 at 25° C.) and 30 μg NADH (reduced […] adenine dinucleotide). After 10-minute incubation at 37° C., 30 μL of 2.4 mM sodium pyruvate was added to each well and plates were gently shaken to mix solution. Plates were immediately placed into a Multiscan MCC/340 plate reader and scanned for […] (excitation at 340 nm) for 1 minute at 5-second intervals. A kinetic analysis of the change in medium absorbance resulting from shifts in NADH concentrations was used, in combination with factors to correct for temperature, light path, and volume adjustments to determine medium LDH concentrations (IU/mL). Normoxic control baseline LDH levels were subtracted from both hypoxic control and test agent values prior to determining test agent effectiveness in preventing oxygen deprivation-induced injury.

[2] = tested on: Hippocampal Slices; test: Recovery of synaptic activity (EPSP) in hippocampal slices after hypoxia-hypoglycemia (Example 4); type: cell-based, rat (male Wistar)
Description: Young male Wistar rats (150 to 250 g) were anesthetized with ketamine (200 mg/kg IP) and ether and were perfused transcardially with cold, oxygenated, low sodium-containing physiological buffer solution (252 mM sucrose, 3.5 mM KCl, 1.0 mM MgSO4, 20 mM CaC1, 26 mM NaHCO3, 1.25 mM NaH2 PO4, and 10 mM glucose) with 50 μM ketamine added. Brains were removed and hippocampi carefully excised. Hippocampi were sliced transversely at 450 μm and transferred into cold (4° C.) low-sodium buffer solution gassed with 95% O2, 5% CO2 at 31° C. After 45 minutes slices were transferred to oxygenated normal physiological solution (126 mM NaCl, 3.5 mM KCl, 1.0 mM MgSO4, 2.0 mM CaCl2, 20 mM NaHCO3, 1.25 mM NaH2 PO4, and 10 mM glucose) at 31° C. for at least 1 hour before experiments began. After preincubation, slices were transferred to a heated (36° C.), gassed incubation chamber where they were continuously superfused with gassed normal physiological solution. Evoked extracellular synaptic potentials (EPSPs) were obtained using glass micropipettes placed approximately 100 μm into the slice. Electrical stimulation was applied once per minute to the stratum radiatum by insulated paired nichrome wires (60 μm diameter). Stimuli consisted of 150 μA pulses lasting 0.4 msec. […] Data from a slice were used only if EPSP amplitude was greater than 2.0 mV before hypoxia-hypoglycemia.
Evoked potentials were recorded and analyzed with a digital computer interface. Experiments were started by recording for several minutes under normal conditions (95% O2, 5% CO2, 10 mM glucose). Then drug was added to the superfusion solution (or normal solution was continued in control experiments). After 10 minutes of drug superfusion, hypoxia-hypoglycemia was induced by switching to superfusion solution containing added drug with low glucose (2 mM) that was equilibrated with 95% N2 and 5% CO2. At the same time the slice chamber gas was switched to 95% N2 and 5% CO2. Hypoxia-hypoglycemia was continued for 12 minutes. After 12 minutes, 95% O2 and 10 mM glucose were returned to the slices and the superfusing solution. Following 15 minutes of reoxygenation, the experiment was ended. EPSPs were considered recovered if they returned to at least half of their original amplitude. The percentage of slices with recovered EPSPs were calculated for each condition.
This study was identical in design to Example 3 except that during the hypoxic period of 12 minutes, glucose was reduced from 10 mM to 2 mM rather than from 10 mM to zero as in Example 3.

[3] = tested on: neuroprotective capabilities; test: Neuroprotective capabilities in vitro (general statement); type: cell-based
[4] = tested on: calcium channels; conditions: concentrations similar to those tested; cited from earlier work
[5] = tested on: neuronal damage from ischemia; conditions: in vitro and in vivo; cited from earlier work

O=C1NC(=O)C(c2ccccc2)(c2ccccc2)N1 [Phenytoin, phenytoin]
inhibition at 30 µM ([1]; 30 μM): 78%
inhibition at 100 µM ([1]; 100 μM): 82%
Number Slices Recovered / Number Slices Tested (≥50% EPSP amplitude recovery after reoxygenation) ([2]; 5 μM): 0/8
Number Slices Recovered / Number Slices Tested (≥50% EPSP amplitude recovery after reoxygenation) ([2]; 20 μM): 5/12
Number Slices Recovered / Number Slices Tested (≥50% EPSP amplitude recovery after reoxygenation) ([2]; 50 μM): 3/9
recovery of EPSPs, overall effect ([2]; concentrations tested in Table 2): enhanced recovery of EPSPs
neuroprotective capabilities [3]: shown in vitro to have neuroprotective capabilities
action on calcium channels [4]: blocks a variety of calcium channels
effect on neuronal damage from ischemia [5]: preventing neuronal damage from ischemia both in vitro and in vivo
